Assay results as given in US11661430B2, “Tetrazole derivatives as TRPA1 inhibitors” (Boehringer Ingelheim International GmbH, priority 2020, dated 2023).

Columns and labels:
human TRPA1 ion channel = target: T1, human TRPA1 ion channel (Homo sapiens, UniProt O75762); experiment: Assay A: TRPA1 assay (FLIPR, AITC-induced intracellular calcium in HEK293 cells); format: cell-based; details: HEK293 cells over-expressing human TRPA1, AITC 10 μM, FLIPRtetra; read-out: hTRPA1 IC50
T1 construct: host or cells: HEK293
Method: A human HEK293 cell line over-expressing the human TRPA1 ion channel (Perkin Elmer, Product No. AX-004-PCL) is used as a test system for compound efficacy and potency. Compound activity is determined by measuring the effect of compounds on intracellular calcium concentration induced by AITC (Allylisothiocyanat) agonism in a FLIPRtetra system (Molecular Devices).
The cells are obtained as frozen cells in cryo-vials and stored until use at −150° C. Cells are grown in culture medium (MEM/EBSS medium with 10% FCS and 0.4 mg/ML Geneticin). […] For sub-culturing cells are detached from flasks by Versene. At the day before the assay, cells are detached, washed twice with medium (MEM/EBSS medium with 10% FCS) and 20000 cells in 20 μl/well are seeded to Poly D-Lysin biocoated 384-well plates (black, clear bottom, Cat. 356697) from Corning. Plates are incubated for 24 hours at 37° C./5% CO2 before use in the assay.
The test compounds are dissolved in 100% DMSO at a concentration of 10 mM and in a first step diluted in DMSO to a concentration of 5 mM, followed by serial dilution steps in 100% DMSO. Dilution factor and number of dilution steps may vary according to needs. Typically 8 different concentrations by 1:5 dilutions are prepared, further intermediate dilutions (1:20) of the substances are carried out with HBSS/HEPES buffer (1×HEPES, Cat. 14065 from Gibco, 20 mM HEPES, Cat. 83264 from SIGMA, 0.1% BSA Cat. 11926 from Invitrogen, pH 7.4
At the assay day cells are washed 3× with assay puffer, 20 μL buffer remaining in the wells after washing. 10 μL Ca6 kit (Cat. R8191 Molecular Devices) loading buffer in HBSS/HEPES is added to the cells and the plates are incubated with lid for 120 minutes at 37°/5% CO2. […] Finally 10 μL of the agonist AITC 50 μM dissolved in HBSS/HEPES buffer/0.05% DMSO (final concentration 10 μM) is added to the wells followed by an additional read on the FLIPRtetra device for 10 minutes. The area under the signal curve (AUC) after AITC addition is used for IC50/% inhibition calculations
Data Evaluation and Calculation:
Each assay microtiter plate contains wells with vehicle (1% DMSO) controls instead of compound as controls for AITC induced luminescence (100% CTL; high controls) and wells with vehicle controls without AITC as controls for non-specific changes in luminescence (0% CTL; low controls).
The analysis of the data is performed by the calculation of the area under signal curve of the individual wells. Based on this values the % value for the measurement of each substance concentration is calculated (AUC(sample)−AUC(low))*100/(AUC(high)−AUC(low)) using MegaLab software (in house development). The IC50 values are calculated from the % control values using MegaLab software. Calculation: [y=(a−d)/(1+(x/c)^b)+d], a=low value, d=high value; x=conc M; c=IC50 M; b=hill; y=% ctrl

[1] = Assay B: Microsomal clearance; format: in vitro ADME, human; details: pooled liver microsomes, 1 μM test compound, 37° C., NADPH
Method: Assay B: Microsomal Clearance:
The metabolic degradation of the test compound is assayed at 37° C. with pooled liver microsomes. The final incubation volume of 100 μl per time point contains TRIS buffer pH 7.6 at RT (0.1 M), magnesium chloride (5 mM), microsomal protein (1 mg/ml) and the test compound at a final concentration of 1 μM.
Following a short preincubation period at 37° C., the reactions are initiated by addition of beta-nicotinamide adenine dinucleotide phosphate, reduced form (NADPH, 1 mM) and terminated by transferring an aliquot into solvent after different time points (0, 5, 15, 30, 60 min). Additionally, the NADPH-independent degradation is monitored in incubations without NADPH, terminated at the last time point. The [%] remaining test compound after NADPH independent incubation is reflected by the parameter c(control) (metabolic stability). The quenched incubations are pelleted by centrifugation (10000 g, 5 min). An aliquot of the supernatant is assayed by LC-MS/MS for the amount of parent compound. The half-life (t½ INVITRO) is determined by the slope of the semilogarithmic plot of the concentration-time profile.
The intrinsic clearance (CL_[…]) is calculated by considering the amount of protein in the incubation: CL_[…] [μl/min/mg protein]=(Ln 2/(half-life [min]*protein content [mg/ml]))*1000 CL_[…]_INVIVO [ml/min/kg]=(CL_[…] [μL/min/mg protein]×MPPGL [mg protein/g liver]×liver factor [g/kg bodyweight])/1000 Qh[%]=CL[ml/min/kg]/hepatic blood flow [ml/min/kg])
(§1) Hepatocellularity, human: 120×10e6 cells/g liver
(§2) Liver factor, human: 25.7 g/kg bodyweight
(§3) Blood flow, human: 21 ml/(min×kg)

[2] = Assay C: Hepatocyte clearance; format: in vitro ADME, human; details: hepatocyte suspension, 1 μM test compound, 5% species serum, six hours
Method: Assay C: Hepatocyte Clearance
The metabolic degradation of the test compound is assayed in a hepatocyte suspension. Hepatocytes (cryopreserved) are incubated in Dulbecco's modified eagle medium (supplemented with 3.5 μg glucagon/500 mL, 2.5 mg insulin/500 mL and 3.75 mg/500 mL hydrocortison) containing 5% species serum.
The cells are incubated for six hours (incubator, orbital shaker) and samples (25 μl) are taken at 0, 0.5, 1, 2, 4 and 6 hours. Samples are transferred into acetonitrile and pelleted by centrifugation (5 min). The supernatant is transferred to a new 96-deepwell plate, evaporated under nitrogen and resuspended.
Decline of Parent Compound is Analyzed by HPLC-MS/MS
CLint is calculated as follows CL_[…]=Dose/AUC=(CO/CD)/(AUD+clast/k)×1000/60. C0: initial concentration in the incubation [μM], CD: cell density of vital cells [10e6 cells/mL], AUD: area under the data [μM×h], clast: concentration of last data point [μM], k: slope of the regression line for parent decline [h−1].
The calculated in vitro hepatic intrinsic clearance can be scaled up to the intrinsic in vivo hepatic Clearance and used to predict hepatic in vivo blood clearance (CL) by the use of a liver model (well stirred model). CL_[…]_INVIVO [ml/min/kg]=(CL_[…] [μL/min/10e6 cells]×hepatocellularity [10e6 cells/g liver]×liver factor [g/kg bodyweight])/1000 CL[ml/min/kg]=CL_[…]_INVIVO [ml/min/kg]×hepatic blood flow [ml/min/kg]/(CL_[…]_INVIVO [ml/min/kg]+hepatic blood flow [ml/min/kg]) Qh[%]=CL[ml/min/kg]/hepatic blood flow [ml/min/kg])
as §1, §2, §3

T1 sequence (O75762 whole entry): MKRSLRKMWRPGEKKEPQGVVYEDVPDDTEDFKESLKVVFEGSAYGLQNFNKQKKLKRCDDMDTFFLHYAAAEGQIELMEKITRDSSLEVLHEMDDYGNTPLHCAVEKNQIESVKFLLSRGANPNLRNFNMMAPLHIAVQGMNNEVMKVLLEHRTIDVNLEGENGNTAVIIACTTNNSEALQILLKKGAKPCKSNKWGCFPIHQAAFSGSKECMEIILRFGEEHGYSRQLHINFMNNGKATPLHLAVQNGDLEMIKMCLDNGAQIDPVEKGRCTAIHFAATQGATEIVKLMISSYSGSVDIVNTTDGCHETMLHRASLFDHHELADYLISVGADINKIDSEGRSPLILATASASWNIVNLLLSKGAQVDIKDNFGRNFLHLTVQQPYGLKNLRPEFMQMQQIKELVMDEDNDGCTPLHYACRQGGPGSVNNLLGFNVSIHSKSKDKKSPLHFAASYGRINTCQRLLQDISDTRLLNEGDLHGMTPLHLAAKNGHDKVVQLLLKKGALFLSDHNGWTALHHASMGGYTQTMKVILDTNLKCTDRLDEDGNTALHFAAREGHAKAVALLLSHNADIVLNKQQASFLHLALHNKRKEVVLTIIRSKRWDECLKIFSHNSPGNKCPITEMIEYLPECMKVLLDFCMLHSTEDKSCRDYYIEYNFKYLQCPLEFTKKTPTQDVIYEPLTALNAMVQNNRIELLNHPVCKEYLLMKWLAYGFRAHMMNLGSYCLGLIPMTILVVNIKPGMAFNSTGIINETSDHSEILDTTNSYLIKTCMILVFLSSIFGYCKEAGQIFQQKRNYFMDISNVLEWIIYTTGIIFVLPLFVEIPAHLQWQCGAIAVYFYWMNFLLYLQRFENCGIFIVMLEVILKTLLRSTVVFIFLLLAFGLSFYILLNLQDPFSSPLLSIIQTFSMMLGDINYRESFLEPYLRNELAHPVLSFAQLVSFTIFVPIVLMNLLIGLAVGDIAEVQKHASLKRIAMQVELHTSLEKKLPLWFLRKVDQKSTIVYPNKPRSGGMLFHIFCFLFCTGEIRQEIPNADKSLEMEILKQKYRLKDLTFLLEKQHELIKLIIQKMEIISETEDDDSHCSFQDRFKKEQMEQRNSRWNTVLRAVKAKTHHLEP

Compound | IC50 (human TRPA1 ion channel) | human LM [% Qh] [1] | human Hepatocytes [% Qh] [2]
NC(=O)c1csc2ncn(Cc3nnn(C[C@H](O)c4ccc(Cl)cc4)n3)c(=O)c12 [Example 1, 3-({2-[(2R)-2-(4-chlorophenyl)-2-hydroxyethyl]-2H-1,2,3,4-tetrazol-5-yl}methyl)-4-oxo-3H,4H-thieno[2,3-d]pyrimidine-5-carboxamide] | 28 nM | <23 % Qh | <4 % Qh
NC(=O)c1csc2ncn(Cc3nnn(C[C@H](O)c4cc5ccc(F)cc5s4)n3)c(=O)c12 [Example 2] |  | 33 % Qh | 19 % Qh
NC(=O)c1csc2ncn(Cc3nnn(C[C@H](O)c4cc5cc(Cl)ccc5o4)n3)c(=O)c12 [Example 3] |  | 27 % Qh | 26 % Qh
NC(=O)c1csc2ncn(Cc3nnn(C[C@H](O)c4ccc5oc(F)cc5c4)n3)c(=O)c12 [Example 4] |  | <23 % Qh | 6 % Qh
NC(=O)c1csc2ncn(Cc3nnn(C[C@H](O)c4cc5ccccc5s4)n3)c(=O)c12 [Example 5] |  | 28 % Qh | 20 % Qh
NC(=O)c1csc2ncn(Cc3nnn(C[C@H](O)c4cc5cc(F)ccc5o4)n3)c(=O)c12 [Example 6] |  | <23 % Qh | 26 % Qh
NC(=O)c1csc2ncn(Cc3nnn(C[C@H](O)c4cc(Cl)c(Cl)s4)n3)c(=O)c12 [Example 7] |  | 34 % Qh | 41 % Qh
NC(=O)c1csc2ncn(Cc3nnn(C[C@H](O)c4cc5cc(Cl)c(F)cc5o4)n3)c(=O)c12 [Example 8] | 26 nM | 26 % Qh | 20 % Qh
NC(=O)c1csc2ncn(Cc3nnn(C[C@H](O)c4cc5ccccc5o4)n3)c(=O)c12 [Example 9] | 29 nM | <23 % Qh | 14 % Qh
Cc1ccc([C@@H](O)Cn2nnc(Cn3cnc4scc(C(N)=O)c4c3=O)n2)cc1 [Example 10] | 31 nM | <23 % Qh | 8 % Qh
NC(=O)c1csc2ncn(Cc3nnn(C[C@H](O)c4ccc(Cl)s4)n3)c(=O)c12 [Example 11] | 31 nM | <23 % Qh | 14 % Qh
NC(=O)c1csc2ncn(Cc3nnn(C[C@H](O)c4ccc(Br)cc4)n3)c(=O)c12 [Example 12] | 34 nM | <23 % Qh | <4 % Qh
NC(=O)c1csc2ncn(Cc3nnn(C[C@H](O)c4cc5cc(F)c(F)cc5o4)n3)c(=O)c12 [Example 13] | 37 nM | <23 % Qh | 10 % Qh
NC(=O)c1csc2ncn(Cc3nnn(C[C@H](O)c4cc5cccc(F)c5o4)n3)c(=O)c12 [Example 14] | 41 nM | <23 % Qh | 14 % Qh
NC(=O)c1csc2ncn(Cc3nnn(C[C@H](O)c4cc5cc(F)c(Cl)cc5o4)n3)c(=O)c12 [Example 15] | 65 nM | <23 % Qh | 30 % Qh
N#Cc1cc2ccc([C@@H](O)Cn3nnc(Cn4cnc5scc(C(N)=O)c5c4=O)n3)cc2o1 [Example 16] | 70 nM | <23 % Qh | 19 % Qh
COc1ccc([C@@H](O)Cn2nnc(Cn3cnc4scc(C(N)=O)c4c3=O)n2)cc1 [Example 17] | 131 nM | <23 % Qh | 18 % Qh
N#Cc1ccc([C@@H](O)Cn2nnc(Cn3cnc4scc(C(N)=O)c4c3=O)n2)s1 [Example 18] | 143 nM | <23 % Qh | <4 % Qh
